Tests used:
[1] = tested on: C57Bl/6 mice; assay: Lack of precipitated withdrawal from oxycodone; details: for total withdrawal signs: oxycodone mice
[2] = biological target: D2 (Homo sapiens, UniProt P14416); assay type: binding
[3] = biological target: 5-HT2A (Homo sapiens, UniProt P28223); assay type: binding
[4] = biological target: SERT (Homo sapiens, UniProt P31645); assay type: binding
[5] = biological target: D1 (Homo sapiens, UniProt P21728); assay type: binding
[6] = tested on: C57BL/6J mice; details: mouse, in vivo

Sequence of 5-HT2A (P28223 whole entry): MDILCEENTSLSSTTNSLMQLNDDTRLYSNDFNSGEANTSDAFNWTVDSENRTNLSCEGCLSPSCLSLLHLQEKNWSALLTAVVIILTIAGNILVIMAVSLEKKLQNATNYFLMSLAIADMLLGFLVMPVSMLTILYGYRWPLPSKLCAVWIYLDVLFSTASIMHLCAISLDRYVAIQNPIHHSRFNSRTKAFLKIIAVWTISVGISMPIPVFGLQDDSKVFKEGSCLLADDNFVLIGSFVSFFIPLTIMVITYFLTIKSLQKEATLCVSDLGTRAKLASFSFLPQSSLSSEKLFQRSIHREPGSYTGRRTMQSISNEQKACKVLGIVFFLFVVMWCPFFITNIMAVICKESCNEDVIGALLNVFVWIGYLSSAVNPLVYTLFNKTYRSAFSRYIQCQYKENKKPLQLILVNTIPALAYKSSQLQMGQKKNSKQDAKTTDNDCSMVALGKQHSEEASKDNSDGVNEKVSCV
Sequence of D2 (P14416 1-414 isoform P14416-2): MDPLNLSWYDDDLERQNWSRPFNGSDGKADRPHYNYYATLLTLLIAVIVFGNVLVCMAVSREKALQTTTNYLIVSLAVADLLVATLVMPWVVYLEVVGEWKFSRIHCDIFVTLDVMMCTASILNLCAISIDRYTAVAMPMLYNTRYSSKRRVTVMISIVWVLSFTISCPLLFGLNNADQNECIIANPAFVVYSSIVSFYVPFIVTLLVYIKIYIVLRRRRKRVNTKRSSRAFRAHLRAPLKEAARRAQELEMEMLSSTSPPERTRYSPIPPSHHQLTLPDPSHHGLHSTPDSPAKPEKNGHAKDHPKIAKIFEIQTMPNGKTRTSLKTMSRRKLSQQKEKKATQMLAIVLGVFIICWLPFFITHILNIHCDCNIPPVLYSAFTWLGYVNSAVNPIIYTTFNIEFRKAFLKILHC
Sequence of D1 (P21728 whole entry): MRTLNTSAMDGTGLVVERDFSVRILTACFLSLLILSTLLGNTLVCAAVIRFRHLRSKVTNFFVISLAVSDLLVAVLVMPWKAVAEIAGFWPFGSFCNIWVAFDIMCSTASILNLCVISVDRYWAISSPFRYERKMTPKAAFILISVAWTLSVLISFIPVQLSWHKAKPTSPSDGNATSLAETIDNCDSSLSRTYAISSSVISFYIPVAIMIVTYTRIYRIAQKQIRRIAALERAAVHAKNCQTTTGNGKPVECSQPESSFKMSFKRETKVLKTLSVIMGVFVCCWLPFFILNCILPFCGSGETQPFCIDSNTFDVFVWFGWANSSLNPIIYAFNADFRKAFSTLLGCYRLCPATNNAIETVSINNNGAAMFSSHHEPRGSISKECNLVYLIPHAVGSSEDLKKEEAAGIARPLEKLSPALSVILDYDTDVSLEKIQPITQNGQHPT
Sequence of SERT (P31645 whole entry, species assumed): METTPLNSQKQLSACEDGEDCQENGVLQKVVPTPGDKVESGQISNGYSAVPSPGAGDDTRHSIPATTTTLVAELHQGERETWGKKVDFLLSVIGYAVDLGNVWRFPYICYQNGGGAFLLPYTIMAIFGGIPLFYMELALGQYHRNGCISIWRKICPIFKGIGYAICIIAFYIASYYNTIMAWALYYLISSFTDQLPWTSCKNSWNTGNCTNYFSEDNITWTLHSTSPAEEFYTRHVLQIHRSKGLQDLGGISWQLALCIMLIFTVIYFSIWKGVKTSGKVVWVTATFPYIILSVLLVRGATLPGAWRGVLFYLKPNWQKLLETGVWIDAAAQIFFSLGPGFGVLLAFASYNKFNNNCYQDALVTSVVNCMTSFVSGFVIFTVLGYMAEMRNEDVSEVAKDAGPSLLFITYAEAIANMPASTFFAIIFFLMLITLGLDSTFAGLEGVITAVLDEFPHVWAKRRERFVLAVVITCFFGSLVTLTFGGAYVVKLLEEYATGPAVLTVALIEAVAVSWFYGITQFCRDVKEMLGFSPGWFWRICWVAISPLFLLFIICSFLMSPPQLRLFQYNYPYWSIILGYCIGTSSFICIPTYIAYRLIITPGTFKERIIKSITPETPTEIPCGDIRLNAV

Structure (SMILES): O=C1CN2c3c(cccc3[C@@H]3CN(CCCOc4ccc(F)cc4)CC[C@@H]32)N1 [Example 1, (6bR,10aS)-8-(3-(4-fluorophenoxy)propyl)-6b,7,8,9,10,10a-hexahydro-1H-pyrido[3′,4′:4,5]pyrrolo[1,2,3-de]quinoxalin-2(3H)-one]
- somatic signs or loss of body weight ([1]; chronic saline, 17.8 mg/kg s.c., relative to vehicle (p>0.05)): does not produce any significant effects
- number of paw tremors or jumps ([1]; mice chronically administered oxycodone, doses <10 mg/kg s.c., vs vehicle): do not differ from mice administered vehicle
- body weight loss ([1]; mice receiving oxycodone chronically, <10 mg/kg): does not induce further body weight loss
- total withdrawal signs ([1]; at 10 mg/kg, p<0.05, mainly wet dog shakes): significantly more total withdrawal signs
- total withdrawal signs ([1]; escalating doses (3, 10, 17.8 mg/kg s.c.), p<0.0001): induced greater total withdrawal signs

Structure (SMILES): O=C1CN2c3c(cccc3[C@@H]3CN(CCCc4n[nH]c5cc(F)ccc45)CC[C@@H]32)N1 [Example 2, (6bR,10aS)-8-(3-(6-fluoro-1H-indazol-3-yl)propyl)-6b,7,8,9,10,10a-hexahydro-1H-pyrido[3′,4′:4,5]pyrrolo[1,2,3-de]quinoxalin-2(3H)-one]
- Ki [2]: 15 nM
- Ki [3]: 2.6 nM
- Ki [4]: 540 nM
- Ki [5]: 5.2 nM

Structure (SMILES): O=C1CN2c3c(cccc3[C@@H]3CN(CCCc4noc5cc(F)ccc45)CC[C@@H]32)N1 [Example 3, (6bR,10aS)-8-(3-(6-fluorobenzo[d]isoxazol-3-yl)propyl)-6b,7,8,9,10,10a-hexahydro-1H-pyrido[3′,4′:4,5]pyrrolo[1,2,3-de]quinoxalin-2(3H)-one]
- Ki [2]: 84 nM
- Ki [3]: 3.1 nM
- Ki [5]: 13 nM

Structure (SMILES): C=CCN1CC[C@]23c4c5ccc(O)c4O[C@H]2C(=O)CC[C@@]3(O)[C@H]1C5 [Naloxone]
- Jumps [6]: 0
- Paw Tremors [6]: 0.87
- Total Number of Signs [6]: 2.2
- body weight loss [6]: 0.5%
